# Measurements taken from PubChem BioAssay (NCI).
#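 1) Cells in 96-well plates. 2) Compound, 48 h, 5 concentrations. 3) Linear interpolation between surrounding doses. 4) Unreached endpoint = highest concentration. At the GI50, growth is halved. TGI marks complete inhibition of growth.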
# Experiments:
# Assay in all cases: DTP human tumour cell line panel, 48 h
# SNB-19 CNS = system: SNB-19 CNS
# MDA-MB-468 breast = system: MDA-MB-468 breast
# A549 NSCLC = system: A549 NSCLC
# MDA-MB-231 breast = system: MDA-MB-231 breast
# NCI-H23 lung = system: NCI-H23 lung
# NCI-H460 lung = system: NCI-H460 lung
# CAKI-1 renal = system: CAKI-1 renal
# HCT-15 colon = system: HCT-15 colon
# HOP-92 NSCLC = system: HOP-92 NSCLC
# CCRF-CEM leukemia = system: CCRF-CEM leukemia
# TK-10 renal = system: TK-10 renal
# RPMI-8226 leukemia = system: RPMI-8226 leukemia
# SN12C renal = system: SN12C renal
# SK-MEL-5 melanoma = system: SK-MEL-5 melanoma
# LOX IMVI melanoma = system: LOX IMVI melanoma
# COLO 205 colon = system: COLO 205 colon
# SK-MEL-28 melanoma = system: SK-MEL-28 melanoma
# DU-145 prostate = system: DU-145 prostate
# RXF 393 renal = system: RXF 393 renal
# UACC-62 melanoma = system: UACC-62 melanoma
# SW-620 colon = system: SW-620 colon
# MOLT-4 leukemia = system: MOLT-4 leukemia
# T-47D breast = system: T-47D breast
# NCI-H226 lung = system: NCI-H226 lung
# BT-549 breast = system: BT-549 breast
# UACC-257 melanoma = system: UACC-257 melanoma
# MALME-3M melanoma = system: MALME-3M melanoma
# MDA-MB-435 = system: MDA-MB-435
# HT29 colon = system: HT29 colon
# SNB-75 CNS = system: SNB-75 CNS
# SF-268 CNS = system: SF-268 CNS
# SK-MEL-2 melanoma = system: SK-MEL-2 melanoma
# HL-60(TB) leukemia = system: HL-60(TB) leukemia
# HS 578T breast = system: HS 578T breast
# OVCAR-3 ovarian = system: OVCAR-3 ovarian
# SF-295 CNS = system: SF-295 CNS
# HCT-116 colon = system: HCT-116 colon
# K-562 leukemia = system: K-562 leukemia
# HCC-2998 colon = system: HCC-2998 colon
# NCI-H522 lung = system: NCI-H522 lung
# IGROV1 ovarian = system: IGROV1 ovarian
# KM12 colon = system: KM12 colon
# M14 melanoma = system: M14 melanoma
# SR leukemia = system: SR leukemia
# 786-0 renal = system: 786-0 renal
# A498 renal = system: A498 renal
# MCF7 breast = system: MCF7 breast
# ACHN renal = system: ACHN renal
# SK-OV-3 ovarian = system: SK-OV-3 ovarian
# OVCAR-4 ovarian = system: OVCAR-4 ovarian
# SF-539 CNS = system: SF-539 CNS
# U251 CNS = system: U251 CNS
# HOP-62 NSCLC = system: HOP-62 NSCLC
# UO-31 renal = system: UO-31 renal
# OVCAR-5 ovarian = system: OVCAR-5 ovarian
# EKVX NSCLC = system: EKVX NSCLC
# OVCAR-8 ovarian = system: OVCAR-8 ovarian
# PC-3 prostate = system: PC-3 prostate
structure (smiles),measurement,setting,value
O=C(c1ccc(Cl)cc1)C1[C@H](c2ccc(Br)cc2)[C@@H](c2ccccc2)NC12C(=O)Nc1ccc(Cl)cc12 (stereo partly specified),GI50,SNB-19 CNS,5.97 µM
same,TGI,SNB-19 CNS,13.2 µM
same,GI50,MDA-MB-468 breast,3.54 µM
same,TGI,MDA-MB-468 breast,11.4 µM
same,GI50,A549 NSCLC,2.31 µM
same,TGI,A549 NSCLC,9.53 µM
same,GI50,MDA-MB-231 breast,4.63 µM
same,TGI,MDA-MB-231 breast,11.3 µM
same,GI50,NCI-H23 lung,3.98 µM
same,TGI,NCI-H23 lung,11.7 µM
same,GI50,NCI-H460 lung,1.66 µM
same,TGI,NCI-H460 lung,7.49 µM
same,GI50,CAKI-1 renal,1.42 µM
same,TGI,CAKI-1 renal,8.42 µM
same,GI50,HCT-15 colon,2.15 µM
same,TGI,HCT-15 colon,8.97 µM
same,GI50,HOP-92 NSCLC,2.3 µM
same,TGI,HOP-92 NSCLC,9.31 µM
same,GI50,CCRF-CEM leukemia,2.79 µM
same,TGI,CCRF-CEM leukemia,13 µM
same,GI50,TK-10 renal,5.49 µM
same,TGI,TK-10 renal,12.2 µM
same,GI50,RPMI-8226 leukemia,1.99 µM
same,TGI,RPMI-8226 leukemia,13.2 µM
same,GI50,SN12C renal,1.88 µM
same,TGI,SN12C renal,7.17 µM
same,GI50,SK-MEL-5 melanoma,7.68 µM
same,TGI,SK-MEL-5 melanoma,15 µM
same,GI50,LOX IMVI melanoma,1.83 µM
same,TGI,LOX IMVI melanoma,10.1 µM
same,GI50,COLO 205 colon,5.85 µM
same,TGI,COLO 205 colon,14.2 µM
same,GI50,SK-MEL-28 melanoma,5.78 µM
same,TGI,SK-MEL-28 melanoma,12.2 µM
same,GI50,DU-145 prostate,5.9 µM
same,TGI,DU-145 prostate,13.6 µM
same,GI50,RXF 393 renal,2.09 µM
same,TGI,RXF 393 renal,9.12 µM
same,GI50,UACC-62 melanoma,2.21 µM
same,TGI,UACC-62 melanoma,9.1 µM
same,GI50,SW-620 colon,3.35 µM
same,TGI,SW-620 colon,10.7 µM
same,GI50,MOLT-4 leukemia,1.64 µM
same,TGI,MOLT-4 leukemia,8.26 µM
same,GI50,T-47D breast,2.13 µM
same,TGI,T-47D breast,9.66 µM
same,GI50,NCI-H226 lung,5.3 µM
same,TGI,NCI-H226 lung,12.2 µM
same,GI50,BT-549 breast,2.71 µM
same,TGI,BT-549 breast,9.33 µM
same,GI50,UACC-257 melanoma,6.03 µM
same,TGI,UACC-257 melanoma,12.8 µM
same,GI50,MALME-3M melanoma,7.09 µM
same,TGI,MALME-3M melanoma,13.9 µM
same,GI50,MDA-MB-435,2.81 µM
same,TGI,MDA-MB-435,9.75 µM
same,GI50,HT29 colon,1.14 µM
same,TGI,HT29 colon,3.22 µM
same,GI50,SNB-75 CNS,2.45 µM
same,TGI,SNB-75 CNS,11.6 µM
same,GI50,SF-268 CNS,2.88 µM
same,TGI,SF-268 CNS,11.2 µM
same,GI50,SK-MEL-2 melanoma,5.51 µM
same,TGI,SK-MEL-2 melanoma,12.1 µM
same,GI50,HL-60(TB) leukemia,4.65 µM
same,TGI,HL-60(TB) leukemia,16.7 µM
same,GI50,HS 578T breast,6.82 µM
same,TGI,HS 578T breast,23 µM
same,GI50,OVCAR-3 ovarian,4.02 µM
same,TGI,OVCAR-3 ovarian,11 µM
same,GI50,SF-295 CNS,2.75 µM
same,TGI,SF-295 CNS,10.1 µM
same,GI50,HCT-116 colon,0.986 µM
same,TGI,HCT-116 colon,3.01 µM
same,GI50,K-562 leukemia,1.64 µM
same,TGI,K-562 leukemia,11.7 µM
same,GI50,HCC-2998 colon,1.63 µM
same,TGI,HCC-2998 colon,7.02 µM
same,GI50,NCI-H522 lung,4.22 µM
same,TGI,NCI-H522 lung,11.8 µM
same,GI50,IGROV1 ovarian,2.76 µM
same,TGI,IGROV1 ovarian,9.96 µM
same,GI50,KM12 colon,2.17 µM
same,TGI,KM12 colon,9.98 µM
same,GI50,M14 melanoma,2.06 µM
same,TGI,M14 melanoma,8.82 µM
same,GI50,SR leukemia,1.63 µM
same,TGI,SR leukemia,9.55 µM
same,GI50,786-0 renal,0.905 µM
same,TGI,786-0 renal,1.89 µM
same,GI50,A498 renal,7.48 µM
same,TGI,A498 renal,15 µM
same,GI50,MCF7 breast,1.69 µM
same,TGI,MCF7 breast,6.82 µM
same,GI50,ACHN renal,2.17 µM
same,TGI,ACHN renal,8.6 µM
same,GI50,SK-OV-3 ovarian,7.36 µM
same,TGI,SK-OV-3 ovarian,17.3 µM
same,GI50,OVCAR-4 ovarian,3.65 µM
same,TGI,OVCAR-4 ovarian,11.9 µM
same,GI50,SF-539 CNS,6.41 µM
same,TGI,SF-539 CNS,13.1 µM
same,GI50,U251 CNS,3.58 µM
same,TGI,U251 CNS,10.7 µM
same,GI50,HOP-62 NSCLC,6.07 µM
same,TGI,HOP-62 NSCLC,13.1 µM
same,GI50,UO-31 renal,1.87 µM
same,TGI,UO-31 renal,8.68 µM
same,GI50,OVCAR-5 ovarian,5.95 µM
same,TGI,OVCAR-5 ovarian,12.6 µM
same,GI50,EKVX NSCLC,4.03 µM
same,TGI,EKVX NSCLC,11.7 µM
same,GI50,OVCAR-8 ovarian,5.46 µM
same,TGI,OVCAR-8 ovarian,12.8 µM
same,GI50,PC-3 prostate,2.03 µM
same,TGI,PC-3 prostate,9.08 µM
